Experimental data reported in patent publication US7314888B1, “Compounds and medicinal use thereof” (Toyama Chemical Co., Ltd., priority 1998, dated 2008).
Where two headings read alike, the source gives them in different places.

Legend:
[1] = target: T1, AP-1 complex (Fos/Jun peptide) (Homo sapiens, UniProt P01100+P05412); test: Activities on AP-1 binding reaction to recognition sequence (ELISA) using Fos/Jun peptide; details: read-out: Inhibition rate %
T1 construct: made in house; host or cells: chemical peptide synthesis (no expression host)
T1 sequence (P01100 137-200 limits assumed): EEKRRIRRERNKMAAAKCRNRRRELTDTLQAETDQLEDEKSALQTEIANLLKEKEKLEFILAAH
T1 sequence (P05412 252-315 limits assumed): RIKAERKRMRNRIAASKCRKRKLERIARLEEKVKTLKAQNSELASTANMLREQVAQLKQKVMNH
Experimental: Activities on AP-1 Binding Reaction to Recognition Sequence (ELISA)
On the other hand, Jun peptide and N-terminal biotinylated tetraglycine Fos peptide containing a DNA-binding site [Nature, Vol. 373, Pages 257-261, 1995] were synthesized and separately dissolved in tris buffer (20 mM tris-hydrochloride (pH 7.5), 50 mM potassium chloride, 1 mM ethylenediaminetetraacetic acid, 10 mM magnesium chloride, 1 mM dithiothreitol, 0.5M guanidine hydrochloride, 30% glycerol). Equimolar quantities of both the solutions were mixed together, and the mixture was used as an AP-1 complex (Fos/Jun peptide). The AP-1 complex was added to avidin-coating 96-well ELISA plate (10 pmol/well), washed, and then blocked with bovine serum albumin. The product was used for binding assay using AP-1 complex.
On the basis of the above-mentioned two coated AP-1, a digoxigenin-labeled double stranded oligonucleotide (22-mer) containing an AP-1 binding sequence ([…]) which has been synthesized elsewhere was reacted in the presence and absence of a sample at room temperature for 30-60 minutes in a binding reaction solution [Hepes buffer or 25 mM tris-hydrochloric acid (pH 7.9), 0.5 mM ethylenediaminetetraacetic acid, 0.05% Nonidet P-40, 10% glycerol]. After of the reaction, unbound labeled oligonucleotide washed out with Hepes buffer solution containing 0.05% of Tween-20. Then, an anti-digoxigenin antibody labeled with peroxidase was added, and reacted with the labeled oligonucleotide bound to AP-1. After washing out the excessive antibody with Hepes buffer containing 0.05% of Tween-20, the residue was reacted for a predetermined period of time in a 100 mM citrate buffer (pH 5.0) containing hydrogen peroxide by using o-phenylenediamine as a substrate. After adding-sulfuric acid solution to each well, absorbance (492 nm) was measured. Taking the absorbance in the absence of sample as 100%, inhibition rate of sample was calculated from the absorbance in the presence of sample.

[2] = test system: type II collagen-induced arthritis; test: Type II collagen-induced arthritis in mice; format: in vivo; details: for inhibition at 100 mg/kg: Mus musculus, po, 100 mg/kg orally, 37th day
Experimental: Type II Collagen-Induced Arthritis in Mice The effect of the compound of Example 12 on the type II collagen-induced arthritis in mice was examined. As the animals, 8 weeks old male DBA/1J mice (Charles River Japan) were used. To 2 mg/mL solution of bovine type II collagen in 0.1 mol/L acetic acid (Kouken) was added an equivalent quantity of Freund complete adjuvant (Nacalai Tesque), and prepared an emulsion. 0.2 ml of the emulsion was subcutaneously injected into the tail root portion. On the 22nd day as counted from the day of first inoculation, the same treatment as above was repeated to induce arthritis. The compound was suspended in 0.5% methyl cellulose solution and administered orally at 100 mg/kg once every day from the 22nd day to the 36th day. To the control group (negative control group), a 0.5% methyl cellulose solution was administered similarly. Severity of the arthritis was evaluated in the following manner: score 0: no change score 1: swelling on one or two toes or slight swelling in the foreleg root or hindleg root only; score 2: swelling and rubor in more joints; score 3: extensive swelling over whole foreleg or hindleg; and total of the four legs was calculated. Taking the maximum score as 12, the arthritis score was calculated to evaluate the severity of arthritis. Regarding the destruction of joints and bones, X ray photographs of four paws were taken on the 37th day, and severity of destruction in the second to fifth articulationes interphalangeae, first to fifth articulationes metacarpophalangeae and metatarsophalangeae, and calcaneus was scored by 0 or 1 in accordance with presence or absence of destruction, and the severity of destruction in the carpus and tarsal was scored by 0 to 3. Total score for the four paws was taken as joint and bone destruction score, taking 50 points as maximum score.

With CC(C)COc1ccc(C(=O)c2ccc(OCC(C)C)c(CCC(=O)O)c2)c(OCC(C)C)c1 [Example 12, 3-[5-(2,4-diisobutoxybenzoyl)-2-isobutoxyphenyl]propionic acid] the inhibition at 200 µM ([1]; 200 μM) was 24%, the inhibition at 500 µM ([1]; 500 μM) was 90% and the arthritis score ([2]; DBA/1J mice, 100 mg/kg orally once every day from 22nd to 36th day, 37th day from first inoculation, maximum score 12) was 3. The “joint and bone destruction score” value ([2]; DBA/1J mice, 100 mg/kg orally once every day from 22nd to 36th day, X ray on 37th day, maximum score 50) was 10, the inhibition at 100 mg/kg ([2]; read-out: inhibition rate as compared with control group (arthritis score)) was 63% and the inhibition at 100 mg/kg ([2]; read-out: inhibition rate as compared with control group (joint and bone destruction score)) was 62%.
